Data taken from ChEMBL document CHEMBL1159136, “Dipeptide mimetics can substitute for the receptor activation domain resulting in highly potent analogues of hPTH(136)” (Bioorg Med Chem Lett, 1996).
Square brackets hold non-standard residues; d marks the D form. Peptide text beside a SMILES is read from it. * marks the point of attachment. X8 = C[C@H](N)/C(F)=C/[C@@H](Cc1ccccc1)C(=O)*; X1 = CC(C)[C@H](/C=C(\Cl)[C@H](C)N)C(=O)*; X2 = CC(C)[C@H](/C=C(\F)[C@H](C)N)C(=O)*; X3 = C/C(=C\[C@H](C(=O)*)C(C)C)[C@H](C)N; NMeA = CN[C@@H](C)C(=O)O

Columns and labels:
OK-1 [1] = experiment: Accumulation of cyclic AMP in OK-1 cells.; assay type: functional, cell-based, opossum
OK-1 [2] = experiment: Compound was evaluated for the intrinsic activity for accumulation of cyclic AMP in OK-1 cells.; assay type: functional, opossum
OK-1 [3] = experiment: Displacement of [125I]-chick PTHrP-(1-36)-NH2 from opossum (OK-1) kidney cells; assay type: functional
SAOS-2 [4] = experiment: Compound was evaluated for the accumulation of cyclic AMP in SaOS-2 (human osteosarcoma) cells.; assay type: functional, cell-based
SAOS-2 [5] = experiment: Compound was evaluated for the intrinsic activity for accumulation of cyclic AMP in SaOS-2 (human osteosarcoma) cells.; assay type: functional
UMR106-06 [6] = experiment: Compound was evaluated for the intrinsic activity for accumulation of cyclic AMP in UMR10606 (rat osteosarcoma) cells.; assay type: functional
UMR106-06 [7] = experiment: Compound was evaluated for the accumulation of cyclic AMP in UMR10606 (rat osteosarcoma) cells.; assay type: functional, cell-based

## CC[C@H](C)[C@H](NC(=O)[C@H](CCC(=O)O)NC(=O)[C@H](CO)NC(=O)[C@@H](NC(=O)[C@H](C)NC)C(C)C)C(=O)N[C@@H](CCC(N)=O)C(=O)N[C@@H](CC(C)C)C(=O)N[C@@H](CCSC)C(=O)N[C@@H](Cc1c[nH]cn1)C(=O)N[C@@H](CC(N)=O)C(=O)N[C@@H](CC(C)C)C(=O)NCC(=O)N[C@@H](CCCCN)C(=O)N[C@@H](Cc1c[nH]cn1)C(=O)N[C@@H](CC(C)C)C(=O)N[C@@H](CC(N)=O)C(=O)N[C@@H](CO)C(=O)N[C@@H](CCSC)C(=O)N[C@@H](CCC(=O)O)C(=O)N[C@@H](CCCN=C(N)N)C(=O)N[C@H](C(=O)N[C@@H](CCC(=O)O)C(=O)N[C@@H](Cc1c[nH]c2ccccc12)C(=O)N[C@@H](CC(C)C)C(=O)N[C@@H](CCCN=C(N)N)C(=O)N[C@@H](CCCCN)C(=O)N[C@@H](CCCCN)C(=O)N[C@@H](CC(C)C)C(=O)N[C@@H](CCC(N)=O)C(=O)N[C@@H](CC(=O)O)C(=O)N[C@H](C(=O)N[C@@H](Cc1c[nH]cn1)C(=O)N[C@@H](CC(N)=O)C(=O)N[C@@H](Cc1ccccc1)C(=O)N[C@H](C(=O)N[C@@H](C)C(N)=O)C(C)C)C(C)C)C(C)C (H-[NMeA]VSEIQLMHNLGKHLNSMERVEWLRKKLQDVHNFVA-NH2)
OK-1 [1]; opossum, OK-1
  EC50: 7.4 nM
OK-1 [2]
  Intrinsic activity: 0.9
OK-1 [3]
  pKD: 8.5
SAOS-2 [4]; Homo sapiens, SAOS-2
  EC50: 1.6 nM
SAOS-2 [5]
  Intrinsic activity: 1
UMR106-06 [6]
  Intrinsic activity: 1
UMR106-06 [7]; Rattus norvegicus, UMR106-06
  EC50: 2.6 nM

## CC[C@H](C)[C@H](NC(=O)[C@H](CCC(=O)O)NC(=O)[C@H](CO)NC(=O)[C@@H](/C=C(\Cl)[C@H](C)N)C(C)C)C(=O)N[C@@H](CCC(N)=O)C(=O)N[C@@H](CC(C)C)C(=O)N[C@@H](CCSC)C(=O)N[C@@H](Cc1c[nH]cn1)C(=O)N[C@@H](CC(N)=O)C(=O)N[C@@H](CC(C)C)C(=O)NCC(=O)N[C@@H](CCCCN)C(=O)N[C@@H](Cc1c[nH]cn1)C(=O)N[C@@H](CC(C)C)C(=O)N[C@@H](CC(N)=O)C(=O)N[C@@H](CO)C(=O)N[C@@H](CCSC)C(=O)N[C@@H](CCC(=O)O)C(=O)N[C@@H](CCCN=C(N)N)C(=O)N[C@H](C(=O)N[C@@H](CCC(=O)O)C(=O)N[C@@H](Cc1c[nH]c2ccccc12)C(=O)N[C@@H](CC(C)C)C(=O)N[C@@H](CCCN=C(N)N)C(=O)N[C@@H](CCCCN)C(=O)N[C@@H](CCCCN)C(=O)N[C@@H](CC(C)C)C(=O)N[C@@H](CCC(N)=O)C(=O)N[C@@H](CC(=O)O)C(=O)N[C@H](C(=O)N[C@@H](Cc1c[nH]cn1)C(=O)N[C@@H](CC(N)=O)C(=O)N[C@@H](Cc1ccccc1)C(=O)N[C@H](C(=O)N[C@@H](C)C(N)=O)C(C)C)C(C)C)C(C)C (X1-SEIQLMHNLGKHLNSMERVEWLRKKLQDVHNFVA-NH2)
OK-1 [1]; opossum, OK-1
  EC50: 7.9 nM
OK-1 [2]
  Intrinsic activity: 1.1
OK-1 [3]
  pKD: 8.9
SAOS-2 [4]; Homo sapiens, SAOS-2
  EC50: 0.85 nM
SAOS-2 [5]
  Intrinsic activity: 1
UMR106-06 [6]
  Intrinsic activity: 1
UMR106-06 [7]; Rattus norvegicus, UMR106-06
  EC50: 0.65 nM

## CC[C@H](C)[C@H](NC(=O)[C@H](CCC(=O)O)NC(=O)[C@H](CO)NC(=O)[C@@H](/C=C(\F)[C@H](C)N)C(C)C)C(=O)N[C@@H](CCC(N)=O)C(=O)N[C@@H](CC(C)C)C(=O)N[C@@H](CCSC)C(=O)N[C@@H](Cc1c[nH]cn1)C(=O)N[C@@H](CC(N)=O)C(=O)N[C@@H](CC(C)C)C(=O)NCC(=O)N[C@@H](CCCCN)C(=O)N[C@@H](Cc1c[nH]cn1)C(=O)N[C@@H](CC(C)C)C(=O)N[C@@H](CC(N)=O)C(=O)N[C@@H](CO)C(=O)N[C@@H](CCSC)C(=O)N[C@@H](CCC(=O)O)C(=O)N[C@@H](CCCN=C(N)N)C(=O)N[C@H](C(=O)N[C@@H](CCC(=O)O)C(=O)N[C@@H](Cc1c[nH]c2ccccc12)C(=O)N[C@@H](CC(C)C)C(=O)N[C@@H](CCCN=C(N)N)C(=O)N[C@@H](CCCCN)C(=O)N[C@@H](CCCCN)C(=O)N[C@@H](CC(C)C)C(=O)N[C@@H](CCC(N)=O)C(=O)N[C@@H](CC(=O)O)C(=O)N[C@H](C(=O)N[C@@H](Cc1c[nH]cn1)C(=O)N[C@@H](CC(N)=O)C(=O)N[C@@H](Cc1ccccc1)C(=O)N[C@H](C(=O)N[C@@H](C)C(N)=O)C(C)C)C(C)C)C(C)C (X2-SEIQLMHNLGKHLNSMERVEWLRKKLQDVHNFVA-NH2)
OK-1 [1]; opossum, OK-1
  EC50: 4.4 nM
OK-1 [2]
  Intrinsic activity: 1
OK-1 [3]
  pKD: 8.9
SAOS-2 [4]; Homo sapiens, SAOS-2
  EC50: 1.5 nM
SAOS-2 [5]
  Intrinsic activity: 0.89
UMR106-06 [6]
  Intrinsic activity: 1
UMR106-06 [7]; Rattus norvegicus, UMR106-06
  EC50: 1.6 nM

## CC[C@H](C)[C@H](NC(=O)[C@H](CCC(=O)O)NC(=O)[C@H](CO)NC(=O)[C@@H](/C=C(\C)[C@H](C)N)C(C)C)C(=O)N[C@@H](CCC(N)=O)C(=O)N[C@@H](CC(C)C)C(=O)N[C@@H](CCSC)C(=O)N[C@@H](Cc1c[nH]cn1)C(=O)N[C@@H](CC(N)=O)C(=O)N[C@@H](CC(C)C)C(=O)NCC(=O)N[C@@H](CCCCN)C(=O)N[C@@H](Cc1c[nH]cn1)C(=O)N[C@@H](CC(C)C)C(=O)N[C@@H](CC(N)=O)C(=O)N[C@@H](CO)C(=O)N[C@@H](CCSC)C(=O)N[C@@H](CCC(=O)O)C(=O)N[C@@H](CCCN=C(N)N)C(=O)N[C@H](C(=O)N[C@@H](CCC(=O)O)C(=O)N[C@@H](Cc1c[nH]c2ccccc12)C(=O)N[C@@H](CC(C)C)C(=O)N[C@@H](CCCN=C(N)N)C(=O)N[C@@H](CCCCN)C(=O)N[C@@H](CCCCN)C(=O)N[C@@H](CC(C)C)C(=O)N[C@@H](CCC(N)=O)C(=O)N[C@@H](CC(=O)O)C(=O)N[C@H](C(=O)N[C@@H](Cc1c[nH]cn1)C(=O)N[C@@H](CC(N)=O)C(=O)N[C@@H](Cc1ccccc1)C(=O)N[C@H](C(=O)N[C@@H](C)C(N)=O)C(C)C)C(C)C)C(C)C (X3-SEIQLMHNLGKHLNSMERVEWLRKKLQDVHNFVA-NH2)
OK-1 [1]; opossum, OK-1
  EC50: 4.4 nM
OK-1 [2]
  Intrinsic activity: 1
OK-1 [3]
  pKD: 9
SAOS-2 [4]; Homo sapiens, SAOS-2
  EC50: 1.1 nM
SAOS-2 [5]
  Intrinsic activity: 1
UMR106-06 [6]
  Intrinsic activity: 1
UMR106-06 [7]; Rattus norvegicus, UMR106-06
  EC50: 1.2 nM

## CC[C@H](C)[C@H](NC(=O)[C@H](CCC(=O)O)NC(=O)[C@H](CO)NC(=O)[C@@H](/C=C(\F)[C@H](C)N)Cc1ccccc1)C(=O)N[C@@H](CCC(N)=O)C(=O)N[C@@H](CC(C)C)C(=O)N[C@@H](CCSC)C(=O)N[C@@H](Cc1c[nH]cn1)C(=O)N[C@@H](CC(N)=O)C(=O)N[C@@H](CC(C)C)C(=O)NCC(=O)N[C@@H](CCCCN)C(=O)N[C@@H](Cc1c[nH]cn1)C(=O)N[C@@H](CC(C)C)C(=O)N[C@@H](CC(N)=O)C(=O)N[C@@H](CO)C(=O)N[C@@H](CCSC)C(=O)N[C@@H](CCC(=O)O)C(=O)N[C@@H](CCCN=C(N)N)C(=O)N[C@H](C(=O)N[C@@H](CCC(=O)O)C(=O)N[C@@H](Cc1c[nH]c2ccccc12)C(=O)N[C@@H](CC(C)C)C(=O)N[C@@H](CCCN=C(N)N)C(=O)N[C@@H](CCCCN)C(=O)N[C@@H](CCCCN)C(=O)N[C@@H](CC(C)C)C(=O)N[C@@H](CCC(N)=O)C(=O)N[C@@H](CC(=O)O)C(=O)N[C@H](C(=O)N[C@@H](Cc1c[nH]cn1)C(=O)N[C@@H](CC(N)=O)C(=O)N[C@@H](Cc1ccccc1)C(=O)N[C@H](C(=O)N[C@@H](C)C(N)=O)C(C)C)C(C)C)C(C)C (X8-SEIQLMHNLGKHLNSMERVEWLRKKLQDVHNFVA-NH2)
OK-1 [1]; opossum, OK-1
  EC50: > 1000 nM
OK-1 [2]
  Intrinsic activity: <0.1
OK-1 [3]
  pKD: 8.6
UMR106-06 [6]
  Intrinsic activity: 0.08
UMR106-06 [7]; Rattus norvegicus, UMR106-06
  EC50: 26 nM

## CC[C@H](C)[C@H](NC(=O)[C@H](CCC(=O)O)NC(=O)[C@H](CO)NC(=O)[C@@H](NC(=O)[C@H](C)N)C(C)C)C(=O)N[C@@H](CCC(N)=O)C(=O)N[C@@H](CC(C)C)C(=O)N[C@@H](CCSC)C(=O)N[C@@H](Cc1c[nH]cn1)C(=O)N[C@@H](CC(N)=O)C(=O)N[C@@H](CC(C)C)C(=O)NCC(=O)N[C@@H](CCCCN)C(=O)N[C@@H](Cc1c[nH]cn1)C(=O)N[C@@H](CC(C)C)C(=O)N[C@@H](CC(N)=O)C(=O)N[C@@H](CO)C(=O)N[C@@H](CCSC)C(=O)N[C@@H](CCC(=O)O)C(=O)N[C@@H](CCCN=C(N)N)C(=O)N[C@H](C(=O)N[C@@H](CCC(=O)O)C(=O)N[C@@H](Cc1c[nH]c2ccccc12)C(=O)N[C@@H](CC(C)C)C(=O)N[C@@H](CCCN=C(N)N)C(=O)N[C@@H](CCCCN)C(=O)N[C@@H](CCCCN)C(=O)N[C@@H](CC(C)C)C(=O)N[C@@H](CCC(N)=O)C(=O)N[C@@H](CC(=O)O)C(=O)N[C@H](C(=O)N[C@@H](Cc1c[nH]cn1)C(=O)N[C@@H](CC(N)=O)C(=O)N[C@@H](Cc1ccccc1)C(=O)N[C@H](C(=O)N[C@@H](C)C(N)=O)C(C)C)C(C)C)C(C)C (stereo in doubt; form 1)
OK-1 [1]; ok-1
  EC50: 5.9 nM
OK-1 [2]
  Intrinsic activity: 1
OK-1 [3]
  pKD: 8.4
SAOS-2 [4]; saos-2
  EC50: 3 nM
SAOS-2 [5]
  Intrinsic activity: 0.95
UMR106-06 [6]
  Intrinsic activity: 1
UMR106-06 [7]; umr106-06
  EC50: 3.3 nM

## CC[C@H](C)[C@H](NC(=O)[C@H](CCC(=O)O)NC(=O)[C@H](CO)NC(=O)[C@@H](NC(=O)[C@H](C)N)C(C)C)C(=O)N[C@@H](CCC(N)=O)C(=O)N[C@@H](CC(C)C)C(=O)N[C@@H](CCSC)C(=O)N[C@@H](Cc1c[nH]cn1)C(=O)N[C@@H](CC(N)=O)C(=O)N[C@@H](CC(C)C)C(=O)NCC(=O)N[C@@H](CCCCN)C(=O)N[C@@H](Cc1c[nH]cn1)C(=O)N[C@@H](CC(C)C)C(=O)N[C@@H](CC(N)=O)C(=O)N[C@@H](CO)C(=O)N[C@@H](CCSC)C(=O)N[C@@H](CCC(=O)O)C(=O)N[C@@H](CCCN=C(N)N)C(=O)N[C@H](C(=O)N[C@@H](CCC(=O)O)C(=O)N[C@@H](Cc1c[nH]c2ccccc12)C(=O)N[C@@H](CC(C)C)C(=O)N[C@@H](CCCN=C(N)N)C(=O)N[C@@H](CCCCN)C(=O)N[C@@H](CCCCN)C(=O)N[C@@H](CC(C)C)C(=O)N[C@@H](CCC(N)=O)C(=O)N[C@@H](CC(=O)O)C(=O)N[C@H](C(=O)N[C@@H](Cc1c[nH]cn1)C(=O)N[C@@H](CC(N)=O)C(=O)N[C@@H](Cc1ccccc1)C(=O)N[C@H](C(=O)N[C@@H](C)C(N)=O)C(C)C)C(C)C)C(C)C (stereo in doubt; form 2)
OK-1 [1]; opossum, OK-1
  EC50: 7 nM
OK-1 [2]
  Intrinsic activity: 1
OK-1 [3]
  pKD: 8.1
SAOS-2 [4]; Homo sapiens, SAOS-2
  EC50: 2.4 nM
SAOS-2 [5]
  Intrinsic activity: 1
UMR106-06 [6]
  Intrinsic activity: 0.95
UMR106-06 [7]; umr106-06
  EC50: 1 nM
